Measurements published in the supplement of paper PMC10307832.

Tests used:
Experiment in all cases: relative viability (nuclei count vs DMSO), 5 days (fraction); higher = more cells survive
Neratinib + Navitoclax = compound: CCOc1cc2ncc(C#N)c(Nc3ccc(OCc4ccccn4)c(Cl)c3)c2cc1NC(=O)/C=C/CN(C)C [Neratinib] + CC1(C)CCC(c2ccc(Cl)cc2)=C(CN2CCN(c3ccc(C(=O)NS(=O)(=O)c4ccc(N[C@H](CCN5CCOCC5)CSc5ccccc5)c(S(=O)(=O)C(F)(F)F)c4)cc3)CC2)C1 [Navitoclax] (partner 0.5 µM)
Method in brief: (§1)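 After 5 days of treatment, lung cancer cells in 1536-well plates were fixed and stained in a single step (final 0.05% Triton X-100, 1% formaldehyde, 1 ug/ml Hoechst) and their nuclei counted on 4× images. Treatment had been applied by pin tool the day after seeding as one drug alone or as a fixed anchor-drug dose with five library-drug doses (not always all listed) in √10 steps. Relative viability is the nuclei count of treated wells divided by that of vehicle wells, and values are medians of duplicate plates.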

Neratinib + Foretinib = compound: CCOc1cc2ncc(C#N)c(Nc3ccc(OCc4ccccn4)c(Cl)c3)c2cc1NC(=O)/C=C/CN(C)C [Neratinib] + COc1cc2c(Oc3ccc(NC(=O)C4(C(=O)Nc5ccc(F)cc5)CC4)cc3F)ccnc2cc1OCCCN1CCOCC1 [Foretinib] (partner 0.25 µM)
Method in brief: as §1

Neratinib + Linsitinib = compound: CCOc1cc2ncc(C#N)c(Nc3ccc(OCc4ccccn4)c(Cl)c3)c2cc1NC(=O)/C=C/CN(C)C [Neratinib] + C[C@]1(O)C[C@@H](c2nc(-c3ccc4ccc(-c5ccccc5)nc4c3)c3c(N)nccn32)C1 [Linsitinib] (partner 1 µM)
Method in brief: as §1

Neratinib + Luminespib = compound: CCOc1cc2ncc(C#N)c(Nc3ccc(OCc4ccccn4)c(Cl)c3)c2cc1NC(=O)/C=C/CN(C)C [Neratinib] + CCNC(=O)c1noc(-c2cc(C(C)C)c(O)cc2O)c1-c1ccc(CN2CCOCC2)cc1 [Luminespib] (partner 0.01 µM)
Method in brief: as §1

## PC-14
Neratinib + Navitoclax; first compound 0.01 µM
  relative viability: 0.988
Neratinib + Navitoclax; first compound 0.03162 µM
  relative viability: 1.01
Neratinib + Navitoclax; first compound 0.1 µM
  relative viability: 0.928
Neratinib + Navitoclax; first compound 0.3162 µM
  relative viability: 0.936
Neratinib + Navitoclax; first compound 1 µM
  relative viability: 0.24
Neratinib + Foretinib; first compound 0.01 µM
  relative viability: 1.04
Neratinib + Foretinib; first compound 0.03162 µM
  relative viability: 0.973
Neratinib + Foretinib; first compound 0.1 µM
  relative viability: 0.862
Neratinib + Foretinib; first compound 0.3162 µM
  relative viability: 0.929
Neratinib + Foretinib; first compound 1 µM
  relative viability: 0.335
Neratinib + Linsitinib; first compound 0.01 µM
  relative viability: 0.979
Neratinib + Linsitinib; first compound 0.03162 µM
  relative viability: 1.1
Neratinib + Linsitinib; first compound 0.1 µM
  relative viability: 0.872
Neratinib + Linsitinib; first compound 0.3162 µM
  relative viability: 0.639
Neratinib + Linsitinib; first compound 1 µM
  relative viability: 0.216
Neratinib + Luminespib; first compound 0.01 µM
  relative viability: 0.176
Neratinib + Luminespib; first compound 0.03162 µM
  relative viability: 0.129
Neratinib + Luminespib; first compound 0.1 µM
  relative viability: 0.156
Neratinib + Luminespib; first compound 0.3162 µM
  relative viability: 0.116
Neratinib + Luminespib; first compound 1 µM
  relative viability: 0.129

## RERF-LC-KJ
Neratinib + Navitoclax; first compound 0.01 µM
  relative viability: 0.854
Neratinib + Navitoclax; first compound 0.03162 µM
  relative viability: 1.07
Neratinib + Navitoclax; first compound 0.1 µM
  relative viability: 0.724
Neratinib + Navitoclax; first compound 0.3162 µM
  relative viability: 0.69
Neratinib + Navitoclax; first compound 1 µM
  relative viability: 0.493
Neratinib + Foretinib; first compound 0.01 µM
  relative viability: 0.924
Neratinib + Foretinib; first compound 0.03162 µM
  relative viability: 0.992
Neratinib + Foretinib; first compound 0.1 µM
  relative viability: 0.896
Neratinib + Foretinib; first compound 0.3162 µM
  relative viability: 0.872
Neratinib + Foretinib; first compound 1 µM
  relative viability: 0.43
Neratinib + Linsitinib; first compound 0.01 µM
  relative viability: 0.943
Neratinib + Linsitinib; first compound 0.1 µM
  relative viability: 0.865
Neratinib + Linsitinib; first compound 0.3162 µM
  relative viability: 0.714
Neratinib + Linsitinib; first compound 1 µM
  relative viability: 0.712
Neratinib + Luminespib; first compound 0.01 µM
  relative viability: 1.45
Neratinib + Luminespib; first compound 0.03162 µM
  relative viability: 1.18
Neratinib + Luminespib; first compound 0.1 µM
  relative viability: 1.16
Neratinib + Luminespib; first compound 0.3162 µM
  relative viability: 1.14
Neratinib + Luminespib; first compound 1 µM
  relative viability: 0.531

## SK-LU-1
Neratinib + Navitoclax; first compound 0.01 µM
  relative viability: 0.842
Neratinib + Navitoclax; first compound 0.03162 µM
  relative viability: 0.979
Neratinib + Navitoclax; first compound 0.3162 µM
  relative viability: 0.0386
Neratinib + Navitoclax; first compound 1 µM
  relative viability: 0.523
Neratinib + Foretinib; first compound 0.01 µM
  relative viability: 0.917
Neratinib + Foretinib; first compound 0.03162 µM
  relative viability: 0.938
Neratinib + Foretinib; first compound 0.1 µM
  relative viability: 0.816
Neratinib + Foretinib; first compound 0.3162 µM
  relative viability: 0.46
Neratinib + Foretinib; first compound 1 µM
  relative viability: 0.302
Neratinib + Linsitinib; first compound 0.01 µM
  relative viability: 1.15
Neratinib + Linsitinib; first compound 0.03162 µM
  relative viability: 1.31
Neratinib + Linsitinib; first compound 0.1 µM
  relative viability: 0.876
Neratinib + Linsitinib; first compound 0.3162 µM
  relative viability: 0.629
Neratinib + Linsitinib; first compound 1 µM
  relative viability: 0.401
Neratinib + Luminespib; first compound 0.01 µM
  relative viability: 0.187
Neratinib + Luminespib; first compound 0.03162 µM
  relative viability: 0.213
Neratinib + Luminespib; first compound 0.1 µM
  relative viability: 0.192
Neratinib + Luminespib; first compound 0.3162 µM
  relative viability: 0.178
Neratinib + Luminespib; first compound 1 µM
  relative viability: 0.176

## SK-MES-1
Neratinib + Navitoclax; first compound 0.01 µM
  relative viability: 1.38
Neratinib + Navitoclax; first compound 0.03162 µM
  relative viability: 1.3
Neratinib + Navitoclax; first compound 0.1 µM
  relative viability: 1.06
Neratinib + Navitoclax; first compound 0.3162 µM
  relative viability: 0.651
Neratinib + Navitoclax; first compound 1 µM
  relative viability: 0.432
Neratinib + Foretinib; first compound 0.01 µM
  relative viability: 0.97
Neratinib + Foretinib; first compound 0.03162 µM
  relative viability: 0.985
Neratinib + Foretinib; first compound 0.1 µM
  relative viability: 0.735
Neratinib + Foretinib; first compound 0.3162 µM
  relative viability: 0.832
Neratinib + Foretinib; first compound 1 µM
  relative viability: 0.375
Neratinib + Linsitinib; first compound 0.03162 µM
  relative viability: 1.09
Neratinib + Linsitinib; first compound 0.1 µM
  relative viability: 0.888
Neratinib + Linsitinib; first compound 0.3162 µM
  relative viability: 0.507
Neratinib + Linsitinib; first compound 1 µM
  relative viability: 0.395
Neratinib + Luminespib; first compound 0.01 µM
  relative viability: 1.08
Neratinib + Luminespib; first compound 0.03162 µM
  relative viability: 0.437
Neratinib + Luminespib; first compound 0.1 µM
  relative viability: 0.428
Neratinib + Luminespib; first compound 0.3162 µM
  relative viability: 0.267
Neratinib + Luminespib; first compound 1 µM
  relative viability: 0.187

## SW 1573
Neratinib + Navitoclax; first compound 0.01 µM
  relative viability: 1.32
Neratinib + Navitoclax; first compound 0.03162 µM
  relative viability: 1.15
Neratinib + Navitoclax; first compound 0.1 µM
  relative viability: 0.862
Neratinib + Navitoclax; first compound 0.3162 µM
  relative viability: 0.87
Neratinib + Navitoclax; first compound 1 µM
  relative viability: 0.804
Neratinib + Foretinib; first compound 0.01 µM
  relative viability: 1.15
Neratinib + Foretinib; first compound 0.03162 µM
  relative viability: 0.894
Neratinib + Foretinib; first compound 0.1 µM
  relative viability: 0.941
Neratinib + Foretinib; first compound 0.3162 µM
  relative viability: 0.97
Neratinib + Foretinib; first compound 1 µM
  relative viability: 0.722
Neratinib + Linsitinib; first compound 0.01 µM
  relative viability: 0.742
Neratinib + Linsitinib; first compound 0.03162 µM
  relative viability: 0.89
Neratinib + Linsitinib; first compound 0.1 µM
  relative viability: 0.778
Neratinib + Linsitinib; first compound 0.3162 µM
  relative viability: 0.782
Neratinib + Linsitinib; first compound 1 µM
  relative viability: 0.642
Neratinib + Luminespib; first compound 0.01 µM
  relative viability: 0.235
Neratinib + Luminespib; first compound 0.03162 µM
  relative viability: 0.196
Neratinib + Luminespib; first compound 0.1 µM
  relative viability: 0.333
Neratinib + Luminespib; first compound 0.3162 µM
  relative viability: 0.188
Neratinib + Luminespib; first compound 1 µM
  relative viability: 0.132

## UMC-11
Neratinib + Navitoclax; first compound 0.01 µM
  relative viability: 0.283
Neratinib + Navitoclax; first compound 0.03162 µM
  relative viability: 0.332
Neratinib + Navitoclax; first compound 0.1 µM
  relative viability: 0.264
Neratinib + Navitoclax; first compound 0.3162 µM
  relative viability: 0.316
Neratinib + Navitoclax; first compound 1 µM
  relative viability: 0.252
Neratinib + Foretinib; first compound 0.01 µM
  relative viability: 0.989
Neratinib + Foretinib; first compound 0.03162 µM
  relative viability: 1.13
Neratinib + Foretinib; first compound 0.1 µM
  relative viability: 1.02
Neratinib + Foretinib; first compound 0.3162 µM
  relative viability: 0.954
Neratinib + Linsitinib; first compound 0.01 µM
  relative viability: 0.925
Neratinib + Linsitinib; first compound 0.03162 µM
  relative viability: 1.07
Neratinib + Linsitinib; first compound 0.1 µM
  relative viability: 0.655
Neratinib + Linsitinib; first compound 0.3162 µM
  relative viability: 0.921
Neratinib + Linsitinib; first compound 1 µM
  relative viability: 0.684
Neratinib + Luminespib; first compound 0.01 µM
  relative viability: 1.15
Neratinib + Luminespib; first compound 0.03162 µM
  relative viability: 1.1
Neratinib + Luminespib; first compound 0.1 µM
  relative viability: 0.964
Neratinib + Luminespib; first compound 0.3162 µM
  relative viability: 0.903
Neratinib + Luminespib; first compound 1 µM
  relative viability: 0.763
